Values of other authors, collected in patent publication US20120259154A1, “In Vivo Immunomagnetic Hyperthermia Platform for Any Cell or Virus Having a Target Surface Receptor” (IVDiagnostics, Inc., priority 2011, published 2012).

Conditions: following intravenous administration

folate-FITC
t1/2 (clearance from the blood): 3.5 min
